Legend:
Assay type in all cases: in vivo
transplanted rice [1] = assay: Phytotoxicity, flooded paddy field, treatment at 3 leaf-stage (Test Example 2)
Description: (§1) Carrier: 5 parts by weight of acetone
(§2) Surfactant: one part by weight of benzyloxy polyglycol ether.
(§3) Above described carrier and surfactant are mixed with one part by weight of the active compound ((a) ingredient and (b) ingredient) and the resulting preparation is then diluted with water to obtain given amount of the test drug (the formulation).
(§4) In a greenhouse, seeds or tubers of Echinochloa, Cyperus difformis L., Scirpus juncoides Roxburgh, Monochoria vaginalis Presl, annual broad-leaved weeds (Lindernia procumbens Philcox, Lindernia dubia L. Penn., Rotala indica Koehne, Elatine triandra Schk, Ammannia multiflora Roxb.), Cyperus serotinus Rottboel and Sagittaria pygmaea Miq. were inoculated in a 500 cm^2 pot filled with paddy field soil. After 2 leaf-stage of rice were transplanted, water was poured to a depth of about 3 cm. At 3.0 leaf-stage of Echinochloa, a prescribed, diluted solution of the formulation of each active compound and each herbicidal compound in the table was separately or simultaneously applied to the surface of water. After the treatment, the water depth of 3 cm was maintained, and herbicidal effect was examined after 4 weeks. In the assessment of the herbicidal effect and the phytotoxicity, 100% refers to complete death and 0% refers to no effect or no phytotoxicity.

Leptochloa chinensis = assay: Weed control by spray treatment at 1.5 to 3.0 leaf-stage (Test Example 3); conditions: spray at 1.5 to 3.0 leaf-stage, 4 weeks later
Description: as §1, §2, §3
(§5) In a greenhouse, seeds of rice (var.: Nipponbare and RD23) and weeds (Echinochloa oryzicola Vasing, Echinochloa cruss-galli, Leptochloa chinensis, Cyperus difformis L., Cyperus iria L., annual broad-leaved weeds (Monochoria vaginalis Presl, Lindernia procumbens Philcox, Lindernia dubia L. Penn., Rotala indica Koehne, Elatine triandra Schk, Ammannia multiflora Roxb. and the like)) were sown in a 500 cm^2 pot filled with paddy field soil and covered with soil. Water was added to the pot (a depth of 0 cm) to be a wet condition, and each test plant was grown in the greenhouse to 1.5 to 3.0 leaf-stage, after then a prescribed, diluted solution of the formulation of each active compound and each herbicidal compound in the table were separately or simultaneously sprayed over the pots with plants. At 3 days after the treatment, the water depth of 3 cm was maintained, and 4 weeks later, herbicidal effect was then examined. In the assessment of the herbicidal effect and the phytotoxicity, 100% refers to complete death and 0% refers to no effect or no phytotoxicity.

Cyperus iria L. = assay: as above; conditions: spray at 1.5 to 3.0 leaf-stage, 4 weeks later
Description: as §1, §2, §3, §5

[2] = system: Echinochloa oryzicola Vasing; assay: as above; conditions: spray at 1.5 to 3.0 leaf-stage, 4 weeks later
Description: as §1, §2, §3, §5

[3] = system: annual broad-leaved weeds; assay: as above; conditions: spray at 1.5 to 3.0 leaf-stage, 4 weeks later
Description: as §1, §2, §3, §5

[4] = system: Monochoria vaginalis Presl; assay: as above; conditions: spray at 1.5 to 3.0 leaf-stage, 4 weeks later
Description: as §1, §2, §3, §5

Cyperus difformis L. = assay: as above; conditions: spray at 1.5 to 3.0 leaf-stage, 4 weeks later
Description: as §1, §2, §3, §5

Echinochloa cruss-galli = assay: as above; conditions: spray at 1.5 to 3.0 leaf-stage, 4 weeks later
Description: as §1, §2, §3, §5

[5] = system: submerged direct sown paddy (RD-23); assay: Phytotoxicity, spray treatment at 1.5 to 3.0 leaf-stage (Test Example 3)
Description: as §1, §2, §3, §5

[6] = system: submerged direct sown paddy (Nipponbare); assay: as above
Description: as §1, §2, §3, §5

Echinochloa [7] = assay: Weed control, flooded paddy field, treatment at 3 leaf-stage (Test Example 2); conditions: after 4 weeks
Description: as §1, §2, §3, §4

Sagittaria pygmaea Miq. [8] = assay: as above; conditions: after 4 weeks
Description: as §1, §2, §3, §4

[9] = system: Cyperus serotinus Rottboel; assay: as above; conditions: after 4 weeks
Description: as §1, §2, §3, §4

[10] = system: annual broad-leaved weeds; assay: as above; conditions: after 4 weeks
Description: as §1, §2, §3, §4

[11] = system: Scirpus juncoides Roxburgh; assay: as above; conditions: after 4 weeks
Description: as §1, §2, §3, §4

[12] = system: Monochoria vaginalis Presl; assay: as above; conditions: after 4 weeks
Description: as §1, §2, §3, §4

Echinochloa [13] = assay: Weed control, flooded paddy field, treatment at 1 leaf-stage (Test Example 1); conditions: after 4 weeks
Description: as §1, §2, §3
as §4, with “Echinochloa,” for “Echinochloa, Cyperus difformis L.,”, “1.0” for “3.0”, “Echinochloa oryzicola Vasing,” for “Echinochloa,”

Sagittaria pygmaea Miq. [14] = assay: as above; conditions: after 4 weeks
Description: as §1, §2, §3
as §4, with “Echinochloa,” for “Echinochloa, Cyperus difformis L.,”, “1.0” for “3.0”, “Echinochloa oryzicola Vasing,” for “Echinochloa,”

[15] = system: Cyperus serotinus Rottboel; assay: as above; conditions: after 4 weeks
Description: as §1, §2, §3
as §4, with “Echinochloa,” for “Echinochloa, Cyperus difformis L.,”, “1.0” for “3.0”, “Echinochloa oryzicola Vasing,” for “Echinochloa,”

[16] = system: annual broad-leaved weeds; assay: as above; conditions: after 4 weeks
Description: as §1, §2, §3
as §4, with “Echinochloa,” for “Echinochloa, Cyperus difformis L.,”, “1.0” for “3.0”, “Echinochloa oryzicola Vasing,” for “Echinochloa,”

[17] = system: Scirpus juncoides Roxburgh; assay: as above; conditions: after 4 weeks
Description: as §1, §2, §3
as §4, with “Echinochloa,” for “Echinochloa, Cyperus difformis L.,”, “1.0” for “3.0”, “Echinochloa oryzicola Vasing,” for “Echinochloa,”

[18] = system: Monochoria vaginalis Presl; assay: as above; conditions: after 4 weeks
Description: as §1, §2, §3
as §4, with “Echinochloa,” for “Echinochloa, Cyperus difformis L.,”, “1.0” for “3.0”, “Echinochloa oryzicola Vasing,” for “Echinochloa,”

transplanted rice [19] = assay: Phytotoxicity, flooded paddy field, treatment at 1 leaf-stage (Test Example 1)
Description: as §1, §2, §3
as §4, with “Echinochloa,” for “Echinochloa, Cyperus difformis L.,”, “1.0” for “3.0”, “Echinochloa oryzicola Vasing,” for “Echinochloa,”

COc1nc(OC)nc(C(=O)c2cccc(F)c2N(C)S(=O)(=O)C(F)F)n1 [(a-1)]
Phytotoxicity (%) ORYSP (transplanted rice [1]; 30 g ai/ha, treatment at 3 leaf-stage, after 4 weeks): 0%
Phytotoxicity (%) ORYSP (transplanted rice [1]; 50 g ai/ha, treatment at 3 leaf-stage, after 4 weeks): 0%
Herbicidal effect (%) LEFCH (Leptochloa chinensis; 30 g ai/ha): 75%
Herbicidal effect (%) LEFCH (Leptochloa chinensis; 50 g ai/ha): 90%
Herbicidal effect (%) CYPIR (Cyperus iria L.; 30 g ai/ha): 100%
Herbicidal effect (%) CYPIR (Cyperus iria L.; 50 g ai/ha): 100%
Herbicidal effect (%) ECHOR ([2]; 30 g ai/ha): 100%
Herbicidal effect (%) ECHOR ([2]; 50 g ai/ha): 100%
Herbicidal effect (%) BBBBB ([3]; 30 g ai/ha): 70%
Herbicidal effect (%) BBBBB ([3]; 50 g ai/ha): 70%
Herbicidal effect (%) MOOVP ([4]; 30 g ai/ha): 85%
Herbicidal effect (%) MOOVP ([4]; 50 g ai/ha): 85%
Herbicidal effect (%) CYPDI (Cyperus difformis L.; 30 g ai/ha): 100%
Herbicidal effect (%) CYPDI (Cyperus difformis L.; 50 g ai/ha): 100%
Herbicidal effect (%) ECHCG (Echinochloa cruss-galli; 30 g ai/ha): 100%
Herbicidal effect (%) ECHCG (Echinochloa cruss-galli; 50 g ai/ha): 100%
Phytotoxicity (%) ORYSW*^2 ([5]; 30 g ai/ha, spray at 1.5 to 3.0 leaf-stage, 4 weeks later, RD-23): 5%
Phytotoxicity (%) ORYSW*^2 ([5]; 50 g ai/ha, spray at 1.5 to 3.0 leaf-stage, 4 weeks later, RD-23): 10%
Phytotoxicity (%) ORYSW*^1 ([6]; 30 g ai/ha, spray at 1.5 to 3.0 leaf-stage, 4 weeks later): 5%
Phytotoxicity (%) ORYSW*^1 ([6]; 50 g ai/ha, spray at 1.5 to 3.0 leaf-stage, 4 weeks later): 10%
Herbicidal effect (%) ECHSS (Echinochloa [7]; 30 g ai/ha): 90%
Herbicidal effect (%) ECHSS (Echinochloa [7]; 50 g ai/ha): 90%
Herbicidal effect (%) SAGPY (Sagittaria pygmaea Miq. [8]; 30 g ai/ha): 70%
Herbicidal effect (%) SAGPY (Sagittaria pygmaea Miq. [8]; 50 g ai/ha): 73%
Herbicidal effect (%) CYPSEE ([9]; 30 g ai/ha): 90%
Herbicidal effect (%) CYPSEE ([9]; 50 g ai/ha): 90%
Herbicidal effect (%) BBBBB ([10]; 30 g ai/ha): 21%
Herbicidal effect (%) BBBBB ([10]; 50 g ai/ha): 30%
Herbicidal effect (%) SCPSS ([11]; 30 g ai/ha): 80%
Herbicidal effect (%) SCPSS ([11]; 50 g ai/ha): 83%
Herbicidal effect (%) MOOVP ([12]; 30 g ai/ha): 20%
Herbicidal effect (%) MOOVP ([12]; 50 g ai/ha): 45%
Herbicidal effect (%) ECHSS (Echinochloa [13]; 30 g ai/ha): 93%
Herbicidal effect (%) ECHSS (Echinochloa [13]; 50 g ai/ha): 95%
Herbicidal effect (%) SAGPY (Sagittaria pygmaea Miq. [14]; 30 g ai/ha): 70%
Herbicidal effect (%) SAGPY (Sagittaria pygmaea Miq. [14]; 50 g ai/ha): 90%
Herbicidal effect (%) CYPSEE ([15]; 30 g ai/ha): 90%
Herbicidal effect (%) CYPSEE ([15]; 50 g ai/ha): 93%
Herbicidal effect (%) BBBBB ([16]; 30 g ai/ha): 25%
Herbicidal effect (%) BBBBB ([16]; 50 g ai/ha): 45%
Herbicidal effect (%) SCPSS ([17]; 30 g ai/ha): 85%
Herbicidal effect (%) SCPSS ([17]; 50 g ai/ha): 87%
Herbicidal effect (%) MOOVP ([18]; 30 g ai/ha): 25%
Herbicidal effect (%) MOOVP ([18]; 50 g ai/ha): 47%
Phytotoxicity (%) ORYSP (transplanted rice [19]; 30 g ai/ha, treatment at 1 leaf-stage, after 4 weeks): 0%
Phytotoxicity (%) ORYSP (transplanted rice [19]; 50 g ai/ha, treatment at 1 leaf-stage, after 4 weeks): 0%

CCOc1ccccc1OS(=O)(=O)NC(=O)Nc1nc(OC)cc(OC)n1 [(b-5), ethoxysulfuron]
Phytotoxicity (%) ORYSP (transplanted rice [1]; rice, in vivo, 4 weeks): 0%
Herbicidal effect (%) LEFCH (Leptochloa chinensis; 20 g ai/ha): 15%
Herbicidal effect (%) CYPIR (Cyperus iria L.; 20 g ai/ha): 100%
Herbicidal effect (%) ECHOR ([2]; 20 g ai/ha): 15%
Herbicidal effect (%) BBBBB ([3]; 20 g ai/ha): 90%
Herbicidal effect (%) MOOVP ([4]; 20 g ai/ha): 95%
Herbicidal effect (%) CYPDI (Cyperus difformis L.; 20 g ai/ha): 100%
Herbicidal effect (%) ECHCG (Echinochloa cruss-galli; 20 g ai/ha): 10%
Phytotoxicity (%) ORYSW*^2 ([5]; RD-23, rice, in vivo, 4 weeks): 10%
Phytotoxicity (%) ORYSW*^1 ([6]; rice, in vivo, 4 weeks): 10%
Herbicidal effect (%) ECHSS (Echinochloa [7]; 20 g ai/ha): 50%
Herbicidal effect (%) SAGPY (Sagittaria pygmaea Miq. [8]; 20 g ai/ha): 60%
Herbicidal effect (%) CYPSEE ([9]; 20 g ai/ha): 20%
Herbicidal effect (%) BBBBB ([10]; 20 g ai/ha): 60%
Herbicidal effect (%) SCPSS ([11]; 20 g ai/ha): 90%
Herbicidal effect (%) MOOVP ([12]; 20 g ai/ha): 80%
Herbicidal effect (%) ECHSS (Echinochloa [13]; 20 g ai/ha): 30%
Herbicidal effect (%) SAGPY (Sagittaria pygmaea Miq. [14]; 20 g ai/ha): 90%
Herbicidal effect (%) CYPSEE ([15]; 20 g ai/ha): 60%
Herbicidal effect (%) BBBBB ([16]; 20 g ai/ha): 95%
Herbicidal effect (%) SCPSS ([17]; 20 g ai/ha): 95%
Herbicidal effect (%) MOOVP ([18]; 20 g ai/ha): 95%
Phytotoxicity (%) ORYSP (transplanted rice [19]; rice, in vivo, 4 weeks): 10%

From US20080200337A1, “Mixed herbicide compositions for paddy field” (Bayer CropScience, priority 2007, published 2008)
